Values quoted from earlier work, collected in patent US20030082109A1, “Dextrorotary nicotine for smoking cessation” (priority 2001, published 2003).
Like-named read-outs stand apart in the source and are kept apart here.

Tests used:
[1] = use as alternative alkaloid in smoking substitute; found and reported
living organisms = details: compared with l-isomer nicotine, found and reported
[2] = given amount of d-isomer vs like amount of natural l-isomer, in a person

Structure (SMILES)	adverse side effects [1]	toxicity relative to the natural tobacco-derived l-isomer of nicotine (living organisms)	toxicity relative to the natural tobacco-derived l-isomer of nicotine (living organisms; listed as dextrorotary isomer of nicotine)	sensations and satisfaction relative to a like amount of l-isomer nicotine [2]
CN1[C@@H](CC(=O)c2ccccc2)CCC[C@H]1C[C@H](O)c1ccccc1 [lobeline]	adverse side effects, which are worse than tobacco withdrawal symptoms			
CN1CCCC1c1cccnc1 (stereo not drawn) [d-isomer of nicotine, 1 methyl-2-(3-Pyridyl) pyrrolidine]		one half as toxic	half as toxic	same sensations and satisfaction
